# Measurements published in patent publication US20240358777A1, “COMPOSITIONS COMPRISING BACILLUS AMYLOLIQUEFACIENS FOR PREVENTING AND TREATING ULCERATIVE COLITIS” (Artugen Therapeutics Ltd., priority 2021, published 2024).
# How the values were obtained:
# ART24 [1] = experiment: Additional EFSA-recommended MIC studies on ART24 lots and cell banks (Table 7); type: cell-based, Bacillus amyloliquefaciens
# Procedure: The minimum inhibitory concentration (MIC) of the listed antimicrobials is expressed as μg/mL. Additional studies following EFSA testing recommendations were performed on lyophilized ART24 lots CO-33-10A2 and CO-33-12A2 and Research and Master Cell Banks CO-33-ART24 BHI and CO-33-ART24 SYD, and those results are shown in Table 7.
# ART24 [2] = experiment: Antibiotic susceptibility of ART24, MIC, VetMIC Lact-1 & Lact-2 panels (Table 6); type: cell-based, Bacillus amyloliquefaciens; details: 24 hr at 37° C., average results from N = 6; for MIC: Bacillus amyloliquefaciens, read-out: ART24 MIC
# Procedure: The minimum inhibitory concentration (MIC) of the listed antimicrobials is expressed as μg/mL. […] From this suspension 46 μL was transferred in to 23 mL of 90% Iso-Sensitest Broth (CM0473, Oxoid) containing 10% BHI broth to end with a final inoculum concentration of 5×10^5 CFU/mL. The wells of the prefabricated 96-well plates were filled with 100 μL of the final suspension. The plates were sealed with an […], Sigma Aldrich) sealing film (to facilitate growth of the […] strains. The plates were then incubated for 24 hr at 37° C. The results are recorded after 24 hours as the lowest concentration of the antibiotic to inhibit visible growth. The prefabricated panels […], Uppsala, Sweden) comprising the antibiotics ampicillin, vancomycin, gentamicin, kanamycin, streptomycin, erythromycin, clindamycin, tetracycline, chloramphenicol, neomycin, penicillin, quinupristin-dalfopristin, linezolid, trimethoprim, ciprofloxacin and rifampicin were used.
# [3] = source CO-33-10A2 (lyophilized lot)
# [4] = source CO-33-12A2 (lyophilized lot)
# [5] = Bacillus amyloliquefaciens, source CO-33-10A2 (lyophilized lot), read-out: MIC
# [6] = Bacillus amyloliquefaciens, source CO-33-12A2 (lyophilized lot), read-out: MIC
# [7] = Bacillus amyloliquefaciens, source CO-33 ART 24 BHI, read-out: MIC
# [8] = Bacillus amyloliquefaciens, source CO-33 ART 024 SYD, read-out: MIC
molecule,measurement,setting,value
Neomycin,MIC,ART24 [1]; [3],≤0.12 µg/mL
same,MIC,ART24 [1]; [4],≤0.12 µg/mL
same,MIC,ART24 [1]; source CO-33 ART 24 BHI,≤0.12 µg/mL
same,MIC,ART24 [1]; source CO-33 ART 024 SYD,≤0.12 µg/mL
same,ART24 MIC,ART24 [2],≤0.5 µg/mL
Cc1ncc([N+](=O)[O-])n1CCO [Metronidazole],MIC,"ART24 [1]; Bacillus amyloliquefaciens, aerobic, source CO-33-10A2, read-out: MIC",> 64 µg/mL
same,MIC,"ART24 [1]; Bacillus amyloliquefaciens, aerobic, source CO-33-12A2, read-out: MIC",> 64 µg/mL
same,MIC,"ART24 [1]; Bacillus amyloliquefaciens, aerobic, source CO-33 ART 24 BHI, read-out: MIC",> 64 µg/mL
same,MIC,"ART24 [1]; Bacillus amyloliquefaciens, aerobic, source CO-33 ART 024 SYD, read-out: MIC",> 64 µg/mL
same,MIC,"ART24 [1]; Bacillus amyloliquefaciens, anaerobic, source CO-33-10A2, read-out: MIC",64 µg/mL
same,MIC,"ART24 [1]; Bacillus amyloliquefaciens, anaerobic, source CO-33-12A2, read-out: MIC",64 µg/mL
same,MIC,"ART24 [1]; Bacillus amyloliquefaciens, anaerobic, source CO-33 ART 24 BHI, read-out: MIC",64 µg/mL
same,MIC,"ART24 [1]; Bacillus amyloliquefaciens, anaerobic, source CO-33 ART 024 SYD, read-out: MIC",64 µg/mL
Penicillin,MIC interpretation,ART24 [1]; source CO-33-10A2,(S)
same,MIC,ART24 [1]; [3],≤0.03 µg/mL
same,MIC interpretation,ART24 [1]; source CO-33-12A2,(S)
same,MIC,ART24 [1]; [4],≤0.03 µg/mL
same,MIC,ART24 [1]; source CO-33 ART 24 BHI,≤0.03 µg/mL
same,MIC interpretation,ART24 [1]; source CO-33 ART 24 BHI,(S)
same,MIC,ART24 [1]; source CO-33 ART 024 SYD,0.06 µg/mL
same,MIC interpretation,ART24 [1]; source CO-33 ART 024 SYD,(S)
same,ART24 MIC,ART24 [2],0.12 to 0.5 µg/mL
O=C(O)c1cn(C2CC2)c2cc(N3CCNCC3)c(F)cc2c1=O [Ciprofloxacin],MIC,ART24 [1]; [5],≤ 0.03 µg/mL
same,MIC,ART24 [1]; [6],≤ 0.03 µg/mL
same,MIC,ART24 [1]; [7],≤ 0.03 µg/mL
same,MIC,ART24 [1]; [8],≤ 0.03 µg/mL
same,MIC interpretation,ART24 [1]; source CO-33-10A2,(S)
same,MIC interpretation,ART24 [1]; source CO-33-12A2,(S)
same,MIC interpretation,ART24 [1]; source CO-33 ART 24 BHI,(S)
same,MIC interpretation,ART24 [1]; source CO-33 ART 024 SYD,(S)
same,MIC,ART24 [2],≤ 0.25 µg/mL
NC[C@H]1O[C@H](O[C@H]2[C@H](O)[C@@H](O[C@H]3O[C@H](CO)[C@@H](O)[C@H](N)[C@H]3O)[C@H](N)C[C@@H]2N)[C@H](O)[C@@H](O)[C@@H]1O [Kanamycin],MIC,ART24 [1]; [5],≤ 0.5 µg/mL
same,MIC,ART24 [1]; [6],≤ 0.5 µg/mL
same,MIC,ART24 [1]; [7],≤ 0.5 µg/mL
same,MIC,ART24 [1]; [8],≤ 0.5 µg/mL
same,MIC interpretation,ART24 [1]; source CO-33-10A2,(S)
same,MIC interpretation,ART24 [1]; source CO-33-12A2,(S)
same,MIC interpretation,ART24 [1]; source CO-33 ART 24 BHI,(S)
same,MIC interpretation,ART24 [1]; source CO-33 ART 024 SYD,(S)
same,MIC,ART24 [2],≤ 2 µg/mL
CCc1c(Cl)c(O)c(Cl)c(O)c1C(=O)O[C@H]1[C@H](O)[C@H](OC)[C@H](OC/C2=C\C=C\C[C@H](O)/C(C)=C/[C@H](CC)[C@@H](O[C@@H]3OC(C)(C)[C@@H](OC(=O)C(C)C)[C@H](O)[C@@H]3O)/C(C)=C/C(C)=C/C[C@@H]([C@@H](C)O)OC2=O)O[C@@H]1C [Fidaxomicin],MIC,ART24 [1]; [5],2 µg/mL
same,MIC,ART24 [1]; [6],4 µg/mL
same,MIC,ART24 [1]; [7],4 µg/mL
same,MIC,ART24 [1]; [8],4 µg/mL
"O=C(N[C@H](CO)[C@H](O)c1ccc([N+](=O)[O-])cc1)C(Cl)Cl [Chloroamphenicol, Chloramphenicol]",MIC,ART24 [1]; [5],2 µg/mL
same,MIC,ART24 [1]; [6],2 µg/mL
same,MIC,ART24 [1]; [7],2 µg/mL
same,MIC,ART24 [1]; [8],2 µg/mL
same,MIC interpretation,ART24 [1]; source CO-33-10A2,(S)
same,MIC interpretation,ART24 [1]; source CO-33-12A2,(S)
same,MIC interpretation,ART24 [1]; source CO-33 ART 24 BHI,(S)
same,MIC interpretation,ART24 [1]; source CO-33 ART 024 SYD,(S)
same,MIC,ART24 [2],4 µg/mL
CN(C)[C@@H]1C(O)=C(C(N)=O)C(=O)[C@@]2(O)C(O)=C3C(=O)c4c(O)cccc4[C@@](C)(O)[C@H]3C[C@@H]12 [Tetracycline],MIC,ART24 [1]; [5],2 µg/mL
same,MIC,ART24 [1]; [6],2 µg/mL
same,MIC,ART24 [1]; [7],2 µg/mL
same,MIC,ART24 [1]; [8],2 µg/mL
same,MIC interpretation,ART24 [1]; source CO-33-10A2,(S)
same,MIC interpretation,ART24 [1]; source CO-33-12A2,(S)
same,MIC interpretation,ART24 [1]; source CO-33 ART 24 BHI,(S)
same,MIC interpretation,ART24 [1]; source CO-33 ART 024 SYD,(S)
same,MIC,ART24 [2],4 µg/mL
CC[C@H]1OC(=O)[C@H](C)[C@@H](O[C@H]2C[C@@](C)(OC)[C@@H](O)[C@H](C)O2)[C@H](C)[C@@H](O[C@@H]2O[C@H](C)C[C@H](N(C)C)[C@H]2O)[C@](C)(O)C[C@@H](C)C(=O)[C@H](C)[C@@H](O)[C@]1(C)O [Erythromycin],MIC,ART24 [1]; [5],0.06 µg/mL
same,MIC,ART24 [1]; [6],0.06 µg/mL
same,MIC,ART24 [1]; [7],0.12 µg/mL
same,MIC,ART24 [1]; [8],0.12 µg/mL
same,MIC interpretation,ART24 [1]; source CO-33-10A2,(S)
same,MIC interpretation,ART24 [1]; source CO-33-12A2,(S)
same,MIC interpretation,ART24 [1]; source CO-33 ART 24 BHI,(S)
same,MIC interpretation,ART24 [1]; source CO-33 ART 024 SYD,(S)
same,MIC,ART24 [2],0.12 µg/mL
